Data published in the NIST ThermoML archive (doi:10.1016/j.jct.2014.10.007).
Where “and” joins values, the source holds several entries; their conditions need not be identical. Equal entries are not always repeated.

Test: molar heat capacity at constant pressure; xn = mol fraction of the nth substance listed
Conditions: 1 kPa, Liquid, Small sample (50 mg) DSC

[Ca+2].[F-].[F-] [calcium fluoride] + [F-].[Li+]
Conditions | molar heat capacity at constant pressure
1255 K, x1 = 0.25 | 98.98 J/K/mol
1255.2 K, x1 = 0.125 | 70.22 J/K/mol
1255.2 K, x1 = 0.375 | 113.91 J/K/mol
1274.7 K, x1 = 0.25 | 102.2 J/K/mol
1275 K, x1 = 0.375 | 118.44 J/K/mol
1275.1 K, x1 = 0.125 | 82.4 J/K/mol
1294.9 K, x1 = 0.25 | 103.71 J/K/mol
1294.9 K, x1 = 0.375 | 121.83 J/K/mol
1305.1 K, x1 = 0.125 | 80.92 J/K/mol
1314.9 K, x1 = 0.25 | 96.32 J/K/mol
1315.2 K, x1 = 0.375 | 118.21 J/K/mol
1325.3 K, x1 = 0.125 | 79.47 J/K/mol
1334.9 K, x1 = 0.5 | 133.92 J/K/mol and 120.41 J/K/mol
1335.2 K, x1 = 0.25 | 98.52 J/K/mol
1335.2 K, x1 = 0.375 | 115.41 J/K/mol
1345.4 K, x1 = 0.125 | 83.81 J/K/mol
1354.9 K, x1 = 0.5 | 125.69 J/K/mol and 133.39 J/K/mol
1355.4 K, x1 = 0.125 | 82.43 J/K/mol
1355.5 K, x1 = 0.375 | 116.94 J/K/mol
1355.6 K, x1 = 0.25 | 98.96 J/K/mol
1375.4 K, x1 = 0.5 | 130.29 J/K/mol and 135.8 J/K/mol
1375.5 K, x1 = 0.375 | 117.98 J/K/mol
1375.7 K, x1 = 0.125 | 75.1 J/K/mol
1375.7 K, x1 = 0.25 | 95.16 J/K/mol
1395.9 K, x1 = 0.5 | 132.9 J/K/mol and 134.28 J/K/mol
1396 K, x1 = 0.125 | 81.03 J/K/mol
1396.1 K, x1 = 0.25 | 106.8 J/K/mol
1396.2 K, x1 = 0.375 | 111.04 J/K/mol
1415.9 K, x1 = 0.5 | 130.4 J/K/mol and 137.28 J/K/mol
1416 K, x1 = 0.125 | 75.28 J/K/mol
1416.1 K, x1 = 0.25 | 101.47 J/K/mol
1416.1 K, x1 = 0.375 | 112.61 J/K/mol
1436.2 K, x1 = 0.125 | 76.95 J/K/mol
1436.2 K, x1 = 0.5 | 135.89 J/K/mol and 130.39 J/K/mol
1436.3 K, x1 = 0.375 | 112.16 J/K/mol
1436.4 K, x1 = 0.25 | 102.59 J/K/mol
1456.5 K, x1 = 0.375 | 120.54 J/K/mol
1456.5 K, x1 = 0.5 | 134.58 J/K/mol and 132.82 J/K/mol
1456.6 K, x1 = 0.125 | 77.21 J/K/mol
1456.8 K, x1 = 0.25 | 102.41 J/K/mol
1476.7 K, x1 = 0.5 | 147.97 J/K/mol and 127.49 J/K/mol
1476.8 K, x1 = 0.125 | 83.38 J/K/mol
1476.9 K, x1 = 0.375 | 111.58 J/K/mol
1477 K, x1 = 0.25 | 101.6 J/K/mol
1497.1 K, x1 = 0.125 | 90.8 J/K/mol
1497.1 K, x1 = 0.375 | 123.99 J/K/mol
1497.1 K, x1 = 0.5 | 143.74 J/K/mol and 127.89 J/K/mol
1497.2 K, x1 = 0.25 | 101.05 J/K/mol
1517.3 K, x1 = 0.125 | 97.18 J/K/mol
1517.4 K, x1 = 0.5 | 142.13 J/K/mol and 123.38 J/K/mol
1517.5 K, x1 = 0.375 | 109.29 J/K/mol
1517.6 K, x1 = 0.25 | 104.18 J/K/mol
